How the values were obtained:
DSP = test: Immunostaining of transplanted tissues for DSP; type: in vivo, immunocompromised mice
Text: (§1) Briefly, the removed tissues were fixed in 4% paraformaldehyde, decalcified in 10% EDTA (pH 7.4), embedded in paraffin, and then immunostained with anti-DSP and anti-BSP antibodies at a dilution of 1:150 as primary antibodies, and reacted with biotin-labeled goat anti-rabbit IgG (Vector Labs) as secondary antibodies to determine DSP and BSP levels (FIG. 4). In this regard, the tissue transplanted with an implant including none of the peptides of the present invention was used as a control group.
(§2) In this regard, a tissue transplanted with an implant including none of the peptides of the present invention was used as a control group.

BSP = test: Immunostaining of transplanted tissues for BSP; type: in vivo, immunocompromised mice
Text: as §1, §2

[1] = system: physiologic dentin (tertiary dentin); test: Indirect pulp capping canine model, physiologic (tertiary) dentin formation; type: in vivo, dogs; conditions: 1.5 μg, 3 weeks
Text: In detail, to establish dentin-damaged canine models by indirect pulp capping, a part of enamel in the cervical part was removed from the premolars of 12-month-old adult dogs by using a dental bur. The dentin was shallowly removed according to the exposure degree of the dentin to form a shallow cavity, thereby establishing a shallow cavity model. The dentin was deeply removed such that the dental pulp was seen through, but not exposed to the outside, thereby establishing a deep cavity model. The models were treated with the control group, the peptide of Group 11, or the peptide of Group 12. 3 weeks later, the adult dogs were euthanized, and teeth were extracted therefrom.
(§3) The extracted teeth were fixed in 4% paraformaldehyde for 2.4 hours, washed with PBS (pH 7.4) several times, and then decalcified with 10% formic acid. The decalcified teeth were embedded in paraffin to prepare tissue sections. The tissue sections were stained with hematoxylin/eosin (H&E), and dentin regeneration capabilities were evaluated by histological analysis.

[2] = system: physiologic dentin (tertiary dentin); test: Direct pulp capping canine model, physiologic (tertiary) dentin formation; type: in vivo, dogs; conditions: exposed pulp, peptide 1.5 μg, sealed with MTA, covered with GI cement, 3 weeks, FIG. 12
Procedure: In detail, to establish dentin-damaged canine models by direct pulp capping, the enamel and dentin in the cervical part were removed from the premolars of 12-month-old adult dogs by using a dental bur so that the dental pulp was exposed to the outside. The models were treated with the control group, the peptide of Group 11, or the peptide of Group 12. 3 weeks later, the adult dogs were euthanized and teeth were extracted therefrom.
as §3, with “24” for “2.4”

[3] = system: root canal spaces of human teeth; test: Implant transplanted into root canal spaces of human teeth (H-E, SEM); type: in vivo; conditions: 6 weeks
Procedure: Reportedly, the dentinal wall and the empty pulp cavity of a natural tooth provide the specific local environment for the regeneration of dentin/pulp-like tissues by dental pulp cells (Huang G T, et al. (2010) Tissue engineering. Part A 16(2):605-615). Therefore, formation of dentin/pulp-like tissues in root canal spaces was evaluated.
In detail, among the implants prepared in Example 3-1, a comparative implant or an implant including the peptide of Group 12 (SEQ ID NO: 96) at a concentration of 10 μg/ml was transplanted into the root canal spaces of human teeth for 6 weeks, and dentin dental pulp-like tissues formed in the respective implants were subjected to hematoxylin-eosin (H-E) staining according to the method of Example 3-1, and photographed by a scanning electron microscope according to the method of Example 3-7 (FIG. 9).

Dspp gene = test: mRNA level of Dspp gene in MDPC-23 cells by real-time PCR; type: cell-based, mouse; conditions: 48 hours, ratio relative to Dspp mRNA level of control group, triplicate
Procedure: The MDPC-23 cells cultured in Example 2-1 were treated with the peptides of the respective groups which were synthesized in Example 1, and cultured for 48 hours. Then, mRNA levels of an odontoblast differentiation marker Dspp gene expressed in the MDPC-23 cells were measured, and a ratio of the measured Dspp mRNA level relative to a Dspp mRNA level measured in a control group was calculated, respectively (Tables 13 to 24). Further, mean values of the Dspp mRNA levels measured in the peptides of respective groups were compared between the groups (FIG. 1B). In this regard MDPC-23 cells which were treated with none of the peptides of the present invention were used as a control group.
The expression levels of the Dspp gene were measured by RT-PCR and real time PCR analysis: In detail, total RNA was extracted from the MDPC-23 cells with TRIzol reagent. 2 μg of the total RNA, 1 μl of reverse transcriptase, and 0.5 μg oligo (dT) were used to synthesize cDNA. The synthesized cDNA were used in real-time polymerase chain reaction. The real-time polymerase chain reaction was performed on an ABI PRISM 7500 sequence detection system (Applied Biosystems) using the following primers and a SYBR GREEN PCR Master Mix (Takara, Japan). The real-time polymerase chain reaction was performed under conditions of 94° C., 1 min; 95° C., 15 sec 60° C., 34 sec for 40 cycles. Results were analyzed by a comparative cycle threshold (CT) method. In this regard, Gapdh gene was used as an internal control. The experiments were performed in triplicate, and then mean values and standard deviations thereof were taken as measured values.

[4] = 6 weeks after transplantation, FIG. 4
[5] = 12 weeks after transplantation, FIG. 7
[6] = deep cavity model, together with GI cement, FIG. 11

Substance	DSP expression level (DSP; [4])	DSP expression level (DSP; [5])	BSP expression level (BSP; [4])	BSP expression level (BSP; [5])	dentin regeneration (histological analysis, H&E) [1, 6]	dentin regeneration (histological analysis, H&E) ([1]; shallow cavity model, FIG. 10)	dentin regeneration (histological analysis, H&E) [2]	pulp-like tissue formation inside root canals (H-E) ([3]; 10 μg/ml, FIG. 9)	newly formed dentin in root canal (H-E) ([3]; FIG. 9 C, D and D′)	odontoblast-like cells on existing dentinal wall (H-E) ([3]; FIG. 9 C, D and D′)	odontoblast-like cells on existing dentinal wall (scanning microscopic images) ([3]; FIG. 9 G and H)	mRNA level of Dspp gene, Mean (Dspp gene)
KYKQKKRNYK (Synthetic construct of novel peptide) [SEQ ID NO: 87]	relatively high DSP expression level	relatively very high DSP expression levels	low BSP expression level	low BSP expression level	regeneration of physiologic tertiary dentin (TD) which was continuous with the odontoblast processes of the original dentin structure was observed	regeneration of physiologic tertiary dentin (TD) which was continuous with the odontoblast processes of the original dentin structure was observed	new physiologic dentin (TD) which was continuous with the odontoblast processes of the original dentin was formed	–	–	–	–	–
KYKQKRRSYK (Synthetic construct of novel peptide) [SEQ ID NO: 96]	relatively high DSP expression level	relatively very high DSP expression levels	low BSP expression level	low BSP expression level	regeneration of physiologic tertiary dentin (TD) which was continuous with the odontoblast processes of the original dentin structure was observed	regeneration of physiologic tertiary dentin (TD) which was continuous with the odontoblast processes of the original dentin structure was observed	new physiologic dentin (TD) which was continuous with the odontoblast processes of the original dentin was formed	vascularized pulp-like tissues were formed	newly formed dentin was observed in the existing dentinal wall	odontoblast-like cells exhibited a palisade arrangement on the existing dentinal wall	odontoblast-like cells exhibited a palisade arrangement on the existing dentinal wall	–
66 (KYKQRKRNKY; Synthetic construct of novel peptide) [compound 66]	–	–	–	–	–	–	–	–	–	–	–	1.627

Source: patent publication US10844092B2, “Peptide for promoting regeneration of dentin or dental pulp tissue” (HysensBio Co., Ltd., priority 2016, dated 2020)
